Assay: Biodistribution of ^64Cu complexes in balb/c mice
Procedure: The biodistribution of the ^64Cu complexes of compounds (1), (3) and (4) (0.10 ml intravenous injection) were evaluated in balb/c mice (5 animals per time point) at 3, 5, 10, 15, 20 and 30 minute time intervals. Biodistribution studies were performed in duplicate.

## Nc1ccc(CNC23CNCCNCC(N)(CNCCNC2)CNCCNC3)cc1.[64Cu+2] [^64Cu-labelled compound (3)]
BLADDER, 3 MIN
  % injected dose per gram: 11.36 % INJECTED DOSE PER GRAM
BLADDER, 5 MIN
  % injected dose per gram: 12.31 % INJECTED DOSE PER GRAM
BLADDER, 10 MIN
  % injected dose per gram: 14.36 % INJECTED DOSE PER GRAM
BLADDER, 15 MIN
  % injected dose per gram: 10.54 % INJECTED DOSE PER GRAM
BLADDER, 20 MIN
  % injected dose per gram: 13.45 % INJECTED DOSE PER GRAM
BLADDER, 30 MIN
  % injected dose per gram: 2.74 % INJECTED DOSE PER GRAM
BLOOD, 3 MIN
  % injected dose per gram: 7.74 % INJECTED DOSE PER GRAM
BLOOD, 5 MIN
  % injected dose per gram: 8.19 % INJECTED DOSE PER GRAM
BLOOD, 10 MIN
  % injected dose per gram: 5.23 % INJECTED DOSE PER GRAM
BLOOD, 15 MIN
  % injected dose per gram: 4.39 % INJECTED DOSE PER GRAM
BLOOD, 20 MIN
  % injected dose per gram: 3.05 % INJECTED DOSE PER GRAM
BLOOD, 30 MIN
  % injected dose per gram: 1.25 % INJECTED DOSE PER GRAM
BONE, 3 MIN
  % injected dose per gram: 1.68 % INJECTED DOSE PER GRAM
BONE, 5 MIN
  % injected dose per gram: 2.11 % INJECTED DOSE PER GRAM
BONE, 10 MIN
  % injected dose per gram: 1.29 % INJECTED DOSE PER GRAM
BONE, 15 MIN
  % injected dose per gram: 1.36 % INJECTED DOSE PER GRAM
BONE, 20 MIN
  % injected dose per gram: 1.11 % INJECTED DOSE PER GRAM
BONE, 30 MIN
  % injected dose per gram: 0.72 % INJECTED DOSE PER GRAM
GIT, 3 MIN
  % injected dose per gram: 2.66 % INJECTED DOSE PER GRAM
GIT, 5 MIN
  % injected dose per gram: 2.88 % INJECTED DOSE PER GRAM
GIT, 10 MIN
  % injected dose per gram: 1.80 % INJECTED DOSE PER GRAM
GIT, 15 MIN
  % injected dose per gram: 2.92 % INJECTED DOSE PER GRAM
GIT, 20 MIN
  % injected dose per gram: 1.05 % INJECTED DOSE PER GRAM
GIT, 30 MIN
  % injected dose per gram: 0.55 % INJECTED DOSE PER GRAM
HEART, 3 MIN
  % injected dose per gram: 2.79 % INJECTED DOSE PER GRAM
HEART, 5 MIN
  % injected dose per gram: 3.00 % INJECTED DOSE PER GRAM
HEART, 10 MIN
  % injected dose per gram: 2.03 % INJECTED DOSE PER GRAM
HEART, 15 MIN
  % injected dose per gram: 1.56 % INJECTED DOSE PER GRAM
HEART, 20 MIN
  % injected dose per gram: 1.24 % INJECTED DOSE PER GRAM
HEART, 30 MIN
  % injected dose per gram: 0.50 % INJECTED DOSE PER GRAM
KIDNEY, 3 MIN
  % injected dose per gram: 22.41 % INJECTED DOSE PER GRAM
KIDNEY, 5 MIN
  % injected dose per gram: 18.99 % INJECTED DOSE PER GRAM
KIDNEY, 10 MIN
  % injected dose per gram: 13.41 % INJECTED DOSE PER GRAM
KIDNEY, 15 MIN
  % injected dose per gram: 10.26 % INJECTED DOSE PER GRAM
KIDNEY, 20 MIN
  % injected dose per gram: 9.98 % INJECTED DOSE PER GRAM
KIDNEY, 30 MIN
  % injected dose per gram: 5.95 % INJECTED DOSE PER GRAM
LIVER, 3 MIN
  % injected dose per gram: 1.94 % INJECTED DOSE PER GRAM
LIVER, 5 MIN
  % injected dose per gram: 2.00 % INJECTED DOSE PER GRAM
LIVER, 10 MIN
  % injected dose per gram: 1.46 % INJECTED DOSE PER GRAM
LIVER, 15 MIN
  % injected dose per gram: 1.24 % INJECTED DOSE PER GRAM
LIVER, 20 MIN
  % injected dose per gram: 1.04 % INJECTED DOSE PER GRAM
LIVER, 30 MIN
  % injected dose per gram: 0.72 % INJECTED DOSE PER GRAM
LUNGS, 3 MIN
  % injected dose per gram: 5.48 % INJECTED DOSE PER GRAM
LUNGS, 5 MIN
  % injected dose per gram: 5.74 % INJECTED DOSE PER GRAM
LUNGS, 10 MIN
  % injected dose per gram: 4.00 % INJECTED DOSE PER GRAM
LUNGS, 15 MIN
  % injected dose per gram: 3.25 % INJECTED DOSE PER GRAM
LUNGS, 20 MIN
  % injected dose per gram: 2.59 % INJECTED DOSE PER GRAM
LUNGS, 30 MIN
  % injected dose per gram: 1.13 % INJECTED DOSE PER GRAM
MUSCLE, 3 MIN
  % injected dose per gram: 1.98 % INJECTED DOSE PER GRAM
MUSCLE, 5 MIN
  % injected dose per gram: 3.17 % INJECTED DOSE PER GRAM
MUSCLE, 10 MIN
  % injected dose per gram: 1.73 % INJECTED DOSE PER GRAM
MUSCLE, 15 MIN
  % injected dose per gram: 2.40 % INJECTED DOSE PER GRAM
MUSCLE, 20 MIN
  % injected dose per gram: 2.13 % INJECTED DOSE PER GRAM
MUSCLE, 30 MIN
  % injected dose per gram: 0.50 % INJECTED DOSE PER GRAM
SKIN, 3 MIN
  % injected dose per gram: 5.63 % INJECTED DOSE PER GRAM
SKIN, 5 MIN
  % injected dose per gram: 6.18 % INJECTED DOSE PER GRAM
SKIN, 10 MIN
  % injected dose per gram: 4.86 % INJECTED DOSE PER GRAM
SKIN, 15 MIN
  % injected dose per gram: 4.49 % INJECTED DOSE PER GRAM
SKIN, 20 MIN
  % injected dose per gram: 3.41 % INJECTED DOSE PER GRAM
SKIN, 30 MIN
  % injected dose per gram: 1.45 % INJECTED DOSE PER GRAM
SPLEEN, 3 MIN
  % injected dose per gram: 1.96 % INJECTED DOSE PER GRAM
SPLEEN, 5 MIN
  % injected dose per gram: 2.01 % INJECTED DOSE PER GRAM
SPLEEN, 10 MIN
  % injected dose per gram: 1.26 % INJECTED DOSE PER GRAM
SPLEEN, 15 MIN
  % injected dose per gram: 1.09 % INJECTED DOSE PER GRAM
SPLEEN, 20 MIN
  % injected dose per gram: 0.93 % INJECTED DOSE PER GRAM
SPLEEN, 30 MIN
  % injected dose per gram: 0.39 % INJECTED DOSE PER GRAM
STOMACH, 3 MIN
  % injected dose per gram: 2.69 % INJECTED DOSE PER GRAM
STOMACH, 5 MIN
  % injected dose per gram: 3.11 % INJECTED DOSE PER GRAM
STOMACH, 10 MIN
  % injected dose per gram: 2.35 % INJECTED DOSE PER GRAM
STOMACH, 15 MIN
  % injected dose per gram: 1.91 % INJECTED DOSE PER GRAM
STOMACH, 20 MIN
  % injected dose per gram: 1.54 % INJECTED DOSE PER GRAM
STOMACH, 30 MIN
  % injected dose per gram: 0.60 % INJECTED DOSE PER GRAM

Source: patent US6869589B1, “Cryptate compounds and methods for diagnosis and therapy” (Australian Nuclear Science & Technology Organization, priority 1999, dated 2005)
